Here are results for one compound from PMC12279193 (Advanced Science, 2025).

In assay [1] the target is S-RBD protein; SARS-CoV-2 RBD (Severe acute respiratory syndrome coronavirus 2, UniProt P0DTC2). Nature of the assay: 1H CPMG and STD NMR; DARTS. It counts as binding. As to conditions: 200 µM S416, 5 µM RBD, PBS in D2O, 5% DMSO-d6, 25 °C.
For assay [2], the target named is T1, HCoV-OC43 spike protein (Human coronavirus OC43, UniProt P36334).
T1 construct: gene S
It counts as binding.

T1 sequence (P36334 14-1297): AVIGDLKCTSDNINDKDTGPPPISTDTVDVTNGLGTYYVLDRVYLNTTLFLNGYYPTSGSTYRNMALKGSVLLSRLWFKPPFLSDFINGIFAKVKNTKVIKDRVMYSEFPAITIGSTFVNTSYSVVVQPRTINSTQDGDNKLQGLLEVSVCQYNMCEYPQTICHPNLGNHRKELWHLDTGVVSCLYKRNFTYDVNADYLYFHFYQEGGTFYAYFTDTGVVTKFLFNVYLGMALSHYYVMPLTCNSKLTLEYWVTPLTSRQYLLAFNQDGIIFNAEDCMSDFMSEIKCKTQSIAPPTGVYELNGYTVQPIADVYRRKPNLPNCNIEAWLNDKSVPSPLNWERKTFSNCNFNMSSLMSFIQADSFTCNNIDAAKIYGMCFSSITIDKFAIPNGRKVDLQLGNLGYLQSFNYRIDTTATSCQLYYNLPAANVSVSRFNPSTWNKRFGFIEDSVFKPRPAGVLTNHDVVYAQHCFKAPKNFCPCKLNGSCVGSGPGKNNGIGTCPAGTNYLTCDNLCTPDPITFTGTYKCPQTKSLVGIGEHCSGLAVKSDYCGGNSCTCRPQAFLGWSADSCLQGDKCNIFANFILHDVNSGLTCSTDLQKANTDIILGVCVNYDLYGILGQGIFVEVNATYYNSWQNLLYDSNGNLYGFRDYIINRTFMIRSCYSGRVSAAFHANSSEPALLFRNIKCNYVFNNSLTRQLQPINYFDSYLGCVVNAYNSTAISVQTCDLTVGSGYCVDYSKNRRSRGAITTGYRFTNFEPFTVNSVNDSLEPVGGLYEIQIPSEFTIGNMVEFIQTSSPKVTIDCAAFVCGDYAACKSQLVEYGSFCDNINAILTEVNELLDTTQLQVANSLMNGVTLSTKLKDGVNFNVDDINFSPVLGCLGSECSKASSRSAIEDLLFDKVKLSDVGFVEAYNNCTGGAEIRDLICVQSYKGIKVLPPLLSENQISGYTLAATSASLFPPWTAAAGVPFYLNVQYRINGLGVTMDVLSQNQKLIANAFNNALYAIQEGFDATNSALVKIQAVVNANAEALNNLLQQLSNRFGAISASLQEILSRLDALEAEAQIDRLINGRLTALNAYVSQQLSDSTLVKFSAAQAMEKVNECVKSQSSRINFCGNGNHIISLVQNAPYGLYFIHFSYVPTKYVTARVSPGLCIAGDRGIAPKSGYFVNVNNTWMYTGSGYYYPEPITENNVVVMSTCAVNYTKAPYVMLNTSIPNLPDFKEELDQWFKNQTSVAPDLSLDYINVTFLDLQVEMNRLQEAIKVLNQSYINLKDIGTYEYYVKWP

As for `CN(/N=C/c1ccccc1C(=O)O)c1nc(-c2ccccc2Cl)cs1` [S416], in assay [1], the “1H CPMG and STD NMR; DARTS” value is on record as “confirmed that S416 could indeed bind to RBD directly”. For the same compound, the affinity in assay [2], expressed as Kd, was 33.3 µM.
